The structures appear in SMILES notation. Where two headings read alike, the source gives them in different places.

Common to all, as to type: cell-based
One experiment deals with HepG2. Nature of the experiment: MTT cytotoxicity assay, HepG2 (liver cancer). The following applies: Homo sapiens. An outline of the steps: (§1)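 Cells were seeded at 7000 per well for 24 h, then given fresh medium with the mimetics at final concentrations of 0 to 200 μM. Viability was measured by adding 1 mg/ml MTT for 4 h at 37° C, dissolving the formazan in DMSO and reading absorbance at 570 nm.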
On the technique in general: Tetrazolium dyes change colour on reduction, which living cells bring about.

For another experiment, the system named is A431. Description: MTT cytotoxicity assay, A431 (squamous carcinoma). To be noted: Homo sapiens, A-431. In outline: as §1
The next experiment concerns SA. Description: MTT cytotoxicity assay, SA (pancreatic cancer as headed). In outline: as §1
Another experiment relates to MCF-7. Description: MTT cytotoxicity assay, MCF-7 (breast cancer). To be noted: Homo sapiens, MCF7; Breast Cancer MCF-7, MTT. An outline of the steps: as §1
The next experiment has as its system SiHa. Description: MTT cytotoxicity assay, SiHa (ovarian cancer as headed). To be noted: Homo sapiens, Cervical Cancer SiHa.
Another experiment concerns SW620. Description: MTT cytotoxicity assay, SW620 (colon cancer). To be noted: Homo sapiens, SW-620.
In another experiment the test system is SW480. Nature of the experiment: MTT cytotoxicity assay, SW480 (colon cancer). To be noted: Homo sapiens.
The test system of experiment [1] is multiple types of cancer cells. Description: MTT cytotoxicity, statements over several cancer cell lines. The following applies: for direct anti-cancer cell activity: summary statement. How it is done: Cell survival after exposure to the sphingolipid metabolite mimetics was examined by MTT cytotoxicity assay. HepG2, A431, HeLa, MCF-7 and SA cells (7000 cells/well) were seeded in each well of a 96-well plate for 24 h. New medium was added to give final concentrations of 0 to 200 μM of the sphingolipid metabolite mimetics. Then, 50 μl of 1 mg/ml 3-(4,5-dimethylthiazol-2-yl)-2,5-diphenyltetrazolium bromide (MTT, Sigma-Aldrich Chemical) was added to each well for 4 h incubation at 37° C. The purple formazan formed was then solubilized by DMSO and absorbance at 570 nm was read by a microplate reader (Molecular Devices, Sunnyvale, Calif.).

Another experiment concerns MES-SA cells. Description: Apoptosis assay, Hoechst 33342 fluorescence staining. To be noted: doses of their IC50 for 8 h. How it is done: The cells were then washed with PBS and stained with Hoechst 33342 (from sigma chemical) for 20 min in the dark. Morphologic changes were analyzed under a fluorescence microscope. The experiment was repeated three times.
Another experiment deals with SW620 cells. Description: Drug sensitivity MTT assay with TRAIL, SW620. Also noted: scale not given here. To be noted: for NZJU alone mean value (sensitivity, growth inhibition): drug alone (19-100 μM; TRAIL 100 ng/ml); for NZJU alone mean value (sensitivity, growth inhibition) / combine mean value (sensitivity, growth inhibition): 48 h; for Enhanced mean value: enhancement due to co-administration with TRAIL; for combine mean value (sensitivity, growth inhibition): mimetic at the dose of its row combined with TRAIL 100 ng/ml. The method, then: (§2) Cell survival after exposure to the anti-tumor agents was examined by MTT cytotoxicity assay. Cells were seeded in each well of a 96-well plate for 24 h. After incubation with various concentrations of compounds, TRAIL, or both for 48 h, the medium was discarded. Then, 50 μl of 1 mg/ml 3-(4,5-dimethylthiazol-2-yl)-2,5-diphenyltetrazolium bromide (MTT, Sigma-Aldrich Chemical) was added to each well for 4 h incubation at 37° C. The purple formazan formed was then solubilized by DMSO and absorbance at 570 nm was read by a microplate reader (Molecular Devices, Sunnyvale, Calif.).

For another experiment, the system named is MCF-7 cells. Nature of the experiment: Drug sensitivity MTT assay with TRAIL, MCF-7. Also noted: scale not given here. To be noted: for NZJU alone mean value (sensitivity, growth inhibition): drug alone (19-100 μM; TRAIL 100 ng/ml); for NZJU alone mean value (sensitivity, growth inhibition) / combine mean value (sensitivity, growth inhibition): 48 h; for Enhanced mean value: enhancement due to co-administration with TRAIL; for combine mean value (sensitivity, growth inhibition): mimetic at the dose of its row combined with TRAIL 100 ng/ml. The method, then:
as §2

The subject of a further experiment is HELA cells. Description: Drug sensitivity MTT assay with TRAIL, HELA. Set-up: scale not given here. To be noted: for NZJU alone mean value (sensitivity, growth inhibition): drug alone (19-100 μM; TRAIL 100 ng/ml); for NZJU alone mean value (sensitivity, growth inhibition) / combine mean value (sensitivity, growth inhibition): 48 h; for Enhanced mean value: enhancement due to co-administration with TRAIL; for combine mean value (sensitivity, growth inhibition): mimetic at the dose of its row combined with TRAIL 100 ng/ml. The method, then:
as §2

Experiment [2] deals with cancer cells (TRAIL resistance). Nature of the experiment: Sensitization of cancer cells to TRAIL-induced apoptosis, general statements. The following applies: summary statement. The method, then: as §2
Setting [3] is: all five cell lines tested, read-out: IC50 values.

By IC50 is commonly meant the concentration that gives 50% inhibition. Turning to `CCCCCCCCCCCCCCNC(=O)[C@@H](NC(=O)Cc1c[nH]c2ccccc12)[C@@H](C)O` [NZJU28, N-((2S,3R)-3-hydroxy-1-oxo-1-(tetradecylamino)butan-2-yl)-indole-3-acetic acid amide], the IC50 with HepG2 was 21.1 ± 1.92 µM; in the experiment on A431 it was 15.5 ± 2.95 µM; in the experiment on SA, 11.5 ± 0.97 µM; in the experiment on MCF-7, 6.81 ± 1.73 µM; in the experiment with SiHa, 4.8 ± 0.29 µM; in the experiment with SW620, 22 ± 0.71 µM. Also, the IC50 in the experiment on SW480 is 20 µM; in experiment [1] (setting [3]) it was under 30 µM. In [1], the “direct anti-cancer cell activity” value is on record as “direct anti-cancer cell activity”. The “apoptotic cell death, fluorescent micrographs (FIG. 30)” value (shortened to “apoptotic cell death … (FIG. 30)”) in the experiment on MES-SA cells was “apoptotic cell death”.

As to `CCCCCCCCCCCCCCNC(=O)[C@@H](NC(=O)c1cc2ccccc2[nH]1)[C@@H](C)O` [NZJU48, N-((2S,3R)-3-hydroxy-1-oxo-1-(tetradecylamino)butan-2-yl)-indole-2-carboxamide], the 50% inhibitory concentration (IC50) in the experiment on HepG2 is 10.5 ± 0.35 µM; in the experiment with A431, 12.2 ± 1.9 µM; with SA, 12.1 ± 2.77 µM; with SiHa, 14.2 ± 1.8 µM; in the experiment with SW480 it was 11.8 ± 1.46 µM; in experiment [1] (all of the cell lines tested, read-out: IC50 values), under 20 µM. In experiment [1] (multiple types of cancer cells, read-out: IC50), the IC50 is under 20 µM. The “direct anti-cancer cell activity” value in experiment [1] is recorded as “direct anti-cancer cell activity”. Moreover, in the experiment on MES-SA cells, the “apoptotic cell death … (FIG. 30)” value is “apoptotic cell death”.

`CCCCCCCCCCCCNC(=O)[C@@H](NC(=O)c1cc2ccccc2o1)[C@@H](C)O` [NZJU36, N-((2S,3R)-3-hydroxy-1-oxo-1-(dodecylamino)butan-2-yl)-benzofuran-2-carboxamide]: the IC50 came to 22.9 ± 1.18 µM in the experiment on HepG2; 20 ± 0.9 µM with A431; 10.5 ± 1.31 µM in the experiment with SA; 20.9 ± 0.54 µM in the experiment on MCF-7; 12.8 ± 2.07 µM with SiHa; 21.3 ± 1.28 µM in the experiment with SW620. In addition, the figures for the IC50 (with SW480; in experiment [1] (setting [3])) were 21.4 µM and under 30 µM, respectively. For the same compound, the “direct anti-cancer cell activity” value in experiment [1] is reported as “direct anti-cancer cell activity”. Moreover, the “apoptotic cell death … (FIG. 30)” value in the experiment with MES-SA cells is recorded as “apoptotic cell death”.

As for `CCCCCCCCCCCCNC(=O)[C@@H](NC(=O)Cc1c[nH]c2ccccc12)[C@@H](C)O` [NZJU27, N-((2S,3R)-3-hydroxy-1-oxo-1-(dodecylamino)butan-2-yl)-indole-3-acetic acid amide], the IC50 in the experiment with HepG2 was 22.6 ± 2.89 µM; with A431, 23.4 ± 3.48 µM; with SA, 20 ± 0.74 µM; in the experiment on MCF-7 it was 15.5 ± 2.3 µM; with SiHa it was 13.6 ± 1.02 µM; in the experiment with SW620 it was 22 ± 2.86 µM. For the same compound, the IC50 with SW480 was 20 µM; in [1] (setting [3]), under 30 µM. Also, the “direct anti-cancer cell activity” value in [1] is recorded as “direct anti-cancer cell activity”. Besides, in the experiment on MES-SA cells, the “apoptotic cell death … (FIG. 30)” value is given as “apoptotic cell death”.

In the case of `CCCCCCCCCCCCNC(=O)[C@@H](NC(=O)c1ccco1)[C@@H](C)O` [NZJU13, N-((2S,3R)-3-hydroxy-1-oxo-1-(dodecylamino)butan-2-yl)-Furan-2-carboxamide], the IC50 with HepG2 turned out to be 147 ± 22.3 µM; with A431, 92.4 ± 2.64 µM; in the experiment on SA, 93.5 ± 3.13 µM; in the experiment on MCF-7, 67.5 ± 4.88 µM; in the experiment with SiHa it was 64.3 ± 1.68 µM; in the experiment on SW620 it was 87.5 ± 7.58 µM. In the experiment with SW480, the IC50 was 125 ± 16.1 µM. For the same compound, the “direct anti-cancer cell activity” value in experiment [1] was “direct anti-cancer cell activity”. Also, the “NZJU alone mean value (sensitivity, growth inhibition)” value in the experiment with SW620 cells is given as 0.126; with MCF-7 cells, 0.148; in the experiment with HELA cells, 0.146. Further, the Enhanced mean value with SW620 cells is recorded as 0.321; with MCF-7 cells, 0.321; with HELA cells, 0.254. For the same compound, the “combine mean value (sensitivity, growth inhibition)” value in the experiment on SW620 cells came out at 0.520; with MCF-7 cells, 0.582; with HELA cells it was 0.435. Further, the TRAIL sensitization activity entry in [2] is on record as “TRAIL sensitization activity”.

Consider `CCCCCCCCCCCCCCNC(=O)[C@@H](NC(=O)c1cc2ccccc2n1C)[C@@H](C)O` [NZJU51, N-((2S,3R)-3-hydroxy-1-oxo-1-(tetradecylamino)butan-2-yl)-(N-methyl)indole-2-carboxamide], for which the IC50 turned out to be 34.5 ± 2.34 µM with HepG2; 13.7 ± 1.73 µM in the experiment on A431; 25.7 ± 0.42 µM in the experiment with SA; 26.5 ± 2.33 µM with SiHa; 34.2 ± 1.36 µM in the experiment with SW480. In addition, the “direct anti-cancer cell activity” value in [1] is “direct anti-cancer cell activity”. Further, the “apoptotic cell death … (FIG. 30)” value with MES-SA cells is “apoptotic cell death”.

With `CCCCCCCCCCCCCCNC(=O)[C@@H](NC(=O)c1cc2ccccc2o1)[C@@H](C)O` [NZJU37, N-((2S,3R)-3-hydroxy-1-oxo-1-(tetradecylamino)butan-2-yl)-benzofuran-2-carboxamide], the IC50 came to 23.4 ± 1.19 µM in the experiment on HepG2; 20.09 ± 0.16 µM in the experiment with A431; 9.61 ± 0.56 µM in the experiment on SA; 23.4 ± 1.19 µM in the experiment on MCF-7; 14.2 ± 1.84 µM with SiHa; 26.7 ± 2.48 µM in the experiment on SW620. Moreover, the values for the 50% inhibitory concentration (IC50) (in the experiment on SW480; in experiment [1] (setting [3])) were 22.8 µM and under 30 µM, respectively. The “direct anti-cancer cell activity” value in experiment [1] is listed as “direct anti-cancer cell activity”. For the same compound, the “apoptotic cell death … (FIG. 30)” value in the experiment with MES-SA cells is listed as “apoptotic cell death”.

In the case of `CCCCCCCCCCCCCCNC(=O)[C@@H](NC(=O)c1cccs1)[C@@H](C)O` [NZJU34, N-((2S,3R)-3-hydroxy-1-oxo-1-(tetradecylamino)butan-2-yl)-2-thiophene carboxamide], the IC50 in the experiment on HepG2 amounted to 88.4 ± 15.5 µM; with A431, 26.4 ± 4.03 µM; with SA, 21.2 ± 3.78 µM; in the experiment with MCF-7 it was 36.07 ± 0.27 µM; with SiHa it was 63 ± 0.25 µM; in the experiment with SW620 it was 78.4 ± 11.1 µM. Further, half-maximal inhibition in the experiment with SW480 (IC50) required 70.3 µM. In experiment [1], the “direct anti-cancer cell activity” value was “direct anti-cancer cell activity”. The “NZJU alone mean value (sensitivity, growth inhibition)” value in the experiment with SW620 cells was 0.315; with MCF-7 cells it was 0.444; in the experiment on HELA cells, 0.334. Also, the Enhanced mean value with SW620 cells is 0.275; in the experiment on MCF-7 cells it was 0.263; with HELA cells it was 0.375. The “combine mean value (sensitivity, growth inhibition)” value stood at 0.664 with SW620 cells, 0.759 in the experiment with MCF-7 cells and 0.744 in the experiment with HELA cells. The TRAIL sensitization activity entry in experiment [2] is “TRAIL sensitization activity”.

Values taken from patent publication US20150031892A1, “SPHINGOLIPID METABOLITE MIMETICS” (Zhejiang University, priority 2012, published 2015).
